Results from the Deep4Chem optical property database.
Values belong to the compound of their own block, whether it stands above or below them.

Assay: solvent given as SMILES

fluorescence lifetime (in ClC(Cl)Cl): 0.6 ns
SMILES: CCCC1(CCC)c2cc(C=C(C#Cc3ccccc3)C#Cc3ccccc3)ccc2-c2ccc(C=C(C#Cc3ccccc3)C#Cc3ccccc3)cc21

fluorescence lifetime (in C1COCCO1): 12.2 ns | fluorescence lifetime (in CCOC(C)=O): 8.2 ns
SMILES: COc1nc(Nc2ccc3cc4ccccc4cc3c2)nc(OC)n1

SMILES: Cc1cc(C)c(B(c2ccccc2N(c2ccccc2)c2ccccc2)c2c(C)cc(C)cc2C)c(C)c1
fluorescence lifetime (in Cc1ccccc1): 27 ns

fluorescence lifetime (in CS(C)=O): 0.36 ns
SMILES: O=S(=O)([O-])CCCCN1C=C/C(=C/C=C/C=C/c2cc[n+](CCCCS(=O)(=O)[O-])c3ccccc23)c2ccccc21

fluorescence lifetime (in ClC(Cl)Cl): 2.68 ns
SMILES: CN(C)c1ccc(C2=Cc3cccc[n+]3[B-](F)(F)O2)cc1

fluorescence lifetime (in C1CCOC1): 2.05 ns
SMILES: CCCCCCOc1ccc(/C=C/c2ccc(N(c3ccc(/C=C/c4ccc(OCCCCCC)cc4)cc3)c3ccc(-c4nc5ccccc5nc4-c4ccc(N(c5ccc(/C=C/c6ccc(OCCCCCC)cc6)cc5)c5ccc(/C=C/c6ccc(OCCCCCC)cc6)cc5)cc4)cc3)cc2)cc1

fluorescence lifetime (in CCCCCC): 67.8 ns | fluorescence lifetime (in CO): 132 ns | fluorescence lifetime (in ClCCl): 79.1 ns
SMILES: Cc1ccc2ccc3cccc4ccc1c2c34

fluorescence lifetime (in C1CCOC1): 0.25 ns | fluorescence lifetime (in ClC(Cl)Cl): 0.9 ns | fluorescence lifetime (in ClCCl): 0.38 ns
SMILES: COc1cc2cc(OC)c(C#Cc3ccc([N+](=O)[O-])cc3)cc2cc1C#Cc1ccc([N+](=O)[O-])cc1

fluorescence lifetime (in CCO): 3 ns | fluorescence lifetime (in ClCCl): 3.8 ns
SMILES: CCN(CC)c1ccc2cc(C#N)/c(=N\C(=O)c3ccc(F)cc3)oc2c1

fluorescence lifetime (in CS(C)=O): 9.1 ns
SMILES: O=c1c2ccccc2[nH]c2ccccc12

fluorescence lifetime (in CC#N): 0.86 ns
SMILES: c1ccc(-c2nc(-c3ccc(-c4cccs4)s3)[nH]c2-c2ccccc2)cc1

fluorescence lifetime (in C1CCOC1): 7.52 ns | fluorescence lifetime (in CN1CCCC1=O): 1.62 ns | fluorescence lifetime (in CN(C)C=O): 0.05 ns
SMILES: O=C1c2ccc3c4c(Oc5ccccc5)cc5c6c(ccc(c7c(Oc8ccccc8)cc(c2c37)C(=O)N1c1ccc(O)cc1)c64)C(=O)N(c1ccc(O)cc1)C5=O

SMILES: Cc1c(C)c(B(c2c(C)c(C)c(N3c4ccccc4Oc4ccccc43)c(C)c2C)c2c(C)c(C)c(N3c4ccccc4Oc4ccccc43)c(C)c2C)c(C)c(C)c1C#N
fluorescence lifetime (in c1ccc([Si](c2ccccc2)(c2ccc(-n3c4ccccc4c4ccccc43)cc2)c2ccc(-n3c4ccccc4c4ccccc43)cc2)cc1): 18 ns

fluorescence lifetime (in ClCCl): 4.67 ns
SMILES: CC(C)c1cccc(C(C)C)c1N1C(=O)c2cccc3c(Oc4ccccc4)ccc(c23)C1=O

fluorescence lifetime (in CCCCCC): 54.7 ns | fluorescence lifetime (in CO): 64.5 ns | fluorescence lifetime (in ClCCl): 37.6 ns
SMILES: Cc1ccc2ccc3c(C)ccc4ccc1c2c43

fluorescence lifetime (in ClC(Cl)Cl): 4.2 ns
SMILES: CCCCCCCCn1c(=O)c2cc3cc4cc5c(=O)n(CCCCCCCC)c(=O)c5cc4c(C#Cc4ccc(N(c5ccccc5)c5ccccc5)cc4)c3cc2c1=O

fluorescence lifetime (in ClC(Cl)Cl): 11.2 ns
SMILES: CCCCCCN1C(=O)c2cc(-c3ccc(-n4c5ccccc5c5ccccc54)cc3)c(-c3ccc(-n4c5ccccc5c5ccccc54)cc3)cc2C1=O
fluorescence lifetime (in c1ccc2c(c1)c1ccccc1n2-c1ccc(-c2ccc(-n3c4ccccc4c4ccccc43)cc2)cc1): 10 ns

fluorescence lifetime (in C1CCCCC1): 0.117 ns | fluorescence lifetime (in CC#N): 0.057 ns | fluorescence lifetime (in CCO): 0.065 ns | fluorescence lifetime (in CCOC(C)=O): 0.069 ns | fluorescence lifetime (in CO): 0.057 ns | fluorescence lifetime (in OCC(F)(F)F): 0.072 ns
SMILES: Cc1ccc(C2=C3C=C(I)C=[N+]3[B-](F)(F)n3cc(I)cc32)cc1

fluorescence lifetime (in C1CCOC1): 0.93 ns | fluorescence lifetime (in C1COCCO1): 3.6 ns | fluorescence lifetime (in CC#N): 2.17 ns | fluorescence lifetime (in CC(C)O): 1.86 ns | fluorescence lifetime (in CCCCO): 0.96 ns | fluorescence lifetime (in CCCO): 2.03 ns | fluorescence lifetime (in CCOC(C)=O): 1.05 ns | fluorescence lifetime (in CN(C)C=O): 1.77 ns | fluorescence lifetime (in CO): 0.59 ns | fluorescence lifetime (in CS(C)=O): 1.92 ns | fluorescence lifetime (in ClC(Cl)Cl): 2.54 ns | fluorescence lifetime (in O): 1.36 ns
SMILES: N#Cc1coc2ccccc2c1=O

SMILES: N#Cc1c2ccccc2cc2ccccc12
fluorescence lifetime (in C1CCCCC1): 12.7 ns | fluorescence lifetime (in CO): 16 ns

SMILES: Cc1ccc(C2=[N+]3C(=Cc4c(C)cc(C)n4[B-]3(F)F)c3ccccc32)[nH]1
fluorescence lifetime (in C1CCOC1): 6.54 ns | fluorescence lifetime (in CC#N): 6.32 ns | fluorescence lifetime (in CCCCCC): 7.31 ns | fluorescence lifetime (in CO): 6.5 ns | fluorescence lifetime (in Cc1ccccc1): 6.17 ns | fluorescence lifetime (in ClCCl): 6.65 ns

fluorescence lifetime (in ClCCl): 8.3 ns
SMILES: COc1ccc(/C=C/c2nc(N3CCOCC3)c3c([n+]2[O-])CCCC3)cc1

fluorescence lifetime (in c1cc(-c2cccc(-n3c4ccccc4c4ccccc43)c2)cc(-n2c3ccccc3c3ccccc32)c1): 28.1 ns
SMILES: CC(C)(C)c1ccc2c(c1)c1cc(C(C)(C)C)ccc1n2-c1cc(C(=O)c2ccncc2)cc(-n2c3ccc(C(C)(C)C)cc3c3cc(C(C)(C)C)ccc32)c1

SMILES: Cc1ccc2ccccc2c1
fluorescence lifetime (in C1CCCCC1): 114 ns

fluorescence lifetime (in CCCCCC): 6.75 ns | fluorescence lifetime (in CO): 6.96 ns | fluorescence lifetime (in ClCCl): 6.2 ns
SMILES: CC1=[N+]2C(=Cc3cccn3[B-]2(F)F)C=C1

fluorescence lifetime (in ClCCl): 0.1 ns
SMILES: CC(C)(C)c1ccc2c(c1)c1cc(C(C)(C)C)ccc1n2-c1ccc(C#Cc2ccc3c4ccc(C#Cc5ccc(-n6c7ccc(C(C)(C)C)cc7c7cc(C(C)(C)C)ccc76)cc5)cc4n(-c4ccc(C(F)(F)F)cc4)c3c2)cc1

SMILES: c1ccc(-c2nc(-c3ccccc3)nc(-c3ccc(-n4c5ccccc5c5c6c(ccc54)C4(c5ccccc5-c5ccccc54)c4ccccc4-6)cc3)n2)cc1
fluorescence lifetime (in O=P(c1ccccc1)(c1ccccc1)c1ccccc1Oc1ccccc1P(=O)(c1ccccc1)c1ccccc1): 11.1 ns

SMILES: CCCCCCCCN(CCCCCCCC)c1ccc(/C=C/c2ccc(C#Cc3ccc(-c4ccc(C#Cc5ccc(/C=C/c6ccc(N(CCCCCCCC)CCCCCCCC)cc6)cc5)cc4)cc3)cc2)cc1
fluorescence lifetime (in Cc1ccccc1): 0.4 ns

SMILES: Cc1ccc2c(c1)c1cc(C)ccc1n2-c1c(-n2c3ccccc3c3ccccc32)c(C#N)c(-n2c3ccccc3c3ccccc32)c(-n2c3ccc(C)cc3c3cc(C)ccc32)c1-n1c2ccccc2c2ccccc21
fluorescence lifetime (in Cc1ccccc1): 5.9 ns

fluorescence lifetime (in ClCCl): 3 ns
SMILES: CCN(CC)c1ccc2cc(C#N)/c(=N\C(=O)c3ccccc3)oc2c1
